How the values were obtained:
human TRPV1 [1] = target: T1, human TRPV1 (Homo sapiens, UniProt Q8NER1); assay: Acid Activation Assay (pH 5.0, FLIPR intracellular Ca2+, recombinant HEK293 cells); type: cell-based; details: percentage of maximal pH 5.0-induced response remaining; HEK293 hTRPV1; max concentration 37.5 μM
T1 construct: expressed in transfected cells
Method in brief: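 HEK293 cells stably expressing recombinant hTRPV1 were loaded with calcium dye for 90-120 min at 25° C and pre-treated with compound for 3 min before a pH 5.0 (DPBS/MES) challenge. Peak FLIPR fluorescence over baseline is given as percentage of the maximal pH 5.0-induced response.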

human TRPV1 [2] = target: T1, human TRPV1; assay: Capsaicin Activation Assay (FLIPR intracellular Ca2+, recombinant HEK293 cells); type: cell-based; details: recombinant HEK293 cells expressing hTRPV1; 50 nM capsaicin; read-out: human TRPV1 capsaicin IC50

T1 sequence (Q8NER1 whole entry): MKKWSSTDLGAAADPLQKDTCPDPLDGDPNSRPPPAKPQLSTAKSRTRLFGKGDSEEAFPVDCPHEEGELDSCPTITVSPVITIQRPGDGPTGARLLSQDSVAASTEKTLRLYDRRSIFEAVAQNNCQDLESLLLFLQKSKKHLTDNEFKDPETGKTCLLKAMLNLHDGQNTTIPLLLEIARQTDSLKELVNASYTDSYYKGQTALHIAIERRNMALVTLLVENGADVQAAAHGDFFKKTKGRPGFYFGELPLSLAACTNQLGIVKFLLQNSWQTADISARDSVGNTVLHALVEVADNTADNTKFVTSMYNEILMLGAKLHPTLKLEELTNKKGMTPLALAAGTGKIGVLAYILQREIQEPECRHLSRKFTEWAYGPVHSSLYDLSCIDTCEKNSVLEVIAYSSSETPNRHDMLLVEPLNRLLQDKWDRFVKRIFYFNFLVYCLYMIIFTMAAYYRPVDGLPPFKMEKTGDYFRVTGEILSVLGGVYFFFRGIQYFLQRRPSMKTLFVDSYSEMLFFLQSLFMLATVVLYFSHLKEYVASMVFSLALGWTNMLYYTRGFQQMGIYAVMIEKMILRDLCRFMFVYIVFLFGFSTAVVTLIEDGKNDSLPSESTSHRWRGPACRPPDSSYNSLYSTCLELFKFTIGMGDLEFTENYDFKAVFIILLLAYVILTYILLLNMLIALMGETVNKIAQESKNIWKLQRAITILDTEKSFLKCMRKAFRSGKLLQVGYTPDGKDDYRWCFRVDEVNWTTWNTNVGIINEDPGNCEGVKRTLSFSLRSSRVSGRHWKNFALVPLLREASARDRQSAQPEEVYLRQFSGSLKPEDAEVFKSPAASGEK

SMILES	human TRPV1 H+ (max % remain) (human TRPV1 [1]) [%]	IC50 (human TRPV1 [2]) [nM]
O=C(Nc1ccc(F)c2c1C[C@H](O)C2)N[C@@H]1CC(CF)(CF)Oc2ccc(F)cc21 [Example 141, 1-[(4R)-6-fluoro-2,2-bis(fluoromethyl)-3,4-dihydro-2H-chromen-4-yl]-3-[(2S)-7-fluoro-2-hydroxy-2,3-dihydro-1H-inden-4-yl]urea]	5	3900
O=C(Nc1ccc(F)c2c1C[C@H](O)C2)N[C@@H]1CC(CF)(CF)Oc2c(F)cc(F)cc21 [Example 142, 1-[(4R)-6,8-difluoro-2,2-bis(fluoromethyl)-3,4-dihydro-2H-chromen-4-yl]-3-[(2S)-7-fluoro-2-hydroxy-2,3-dihydro-1H-inden-4-yl]urea]	4	4000
O=C(Nc1ccc(F)c2c1C[C@H](O)C2)N[C@@H]1CC2(CCC2)Oc2ccc(F)cc21 [Example 143, 1-[(4R)-6-fluoro-3,4-dihydrospiro[chromene-2,1′-cyclobutan]-4-yl]-3-[(2S)-7-fluoro-2-hydroxy-2,3-dihydro-1H-inden-4-yl]urea]	3	1100
O=C(Nc1ccc(F)c2c1C[C@H](O)C2)N[C@@H]1CC(CF)(CF)Oc2c1ccc(Cl)c2F [Example 144, 1-[(4R)-7-chloro-8-fluoro-2,2-bis(fluoromethyl)-3,4-dihydro-2H-chromen-4-yl]-3-[(2S)-7-fluoro-2-hydroxy-2,3-dihydro-1H-inden-4-yl]urea]	2	400
CC1(C)C[C@@H](NC(=O)Nc2ccc(F)c3c2C[C@H](O)C3)c2ccccc2O1 [Example 145, 1-[(4R)-2,2-dimethyl-3,4-dihydro-2H-chromen-4-yl]-3-[(2S)-7-fluoro-2-hydroxy-2,3-dihydro-1H-inden-4-yl]urea]	7	3200
CC1(C)C[C@@H](NC(=O)Nc2ccc(F)c3c2C[C@H](O)C3)c2cc(F)ccc2O1 [Example 146, 1-[(4R)-6-fluoro-2,2-dimethyl-3,4-dihydro-2H-chromen-4-yl]-3-[(2S)-7-fluoro-2-hydroxy-2,3-dihydro-1H-inden-4-yl]urea]	7	2800
CC1(C)C[C@@H](NC(=O)Nc2ccc(F)c3c2C[C@H](O)C3)c2ccc(F)c(Cl)c2O1 [Example 147, 1-[(4R)-8-chloro-7-fluoro-2,2-dimethyl-3,4-dihydro-2H-chromen-4-yl]-3-[(2S)-7-fluoro-2-hydroxy-2,3-dihydro-1H-inden-4-yl]urea]	2	440
CN1CC[C@@H](NC(=O)Nc2ccc(F)c3c2C[C@H](O)C3)c2ccc(C(F)(F)F)cc21 [Example 148, 1-[(2S)-7-fluoro-2-hydroxy-2,3-dihydro-1H-inden-4-yl]-3-[(4R)-1-methyl-7-(trifluoromethyl)-1,2,3,4-tetrahydroquinolin-4-yl]urea]	21	3100
CC1(C)C[C@@H](NC(=O)Nc2ccc(F)c3c2C[C@H](O)C3)c2ccc(Cl)cc2O1 [Example 149, 1-[(4R)-7-chloro-2,2-dimethyl-3,4-dihydro-2H-chromen-4-yl]-3-[(2S)-7-fluoro-2-hydroxy-2,3-dihydro-1H-inden-4-yl]urea]	2	540
O=C(Nc1ccc(F)c2c1C[C@H](O)C2)N[C@@H]1CCOc2cc(OC(F)(F)F)ccc21 [Example 150, 1-[(2S)-7-fluoro-2-hydroxy-2,3-dihydro-1H-inden-4-yl]-3-[(4R)-7-(trifluoromethoxy)-3,4-dihydro-2H-chromen-4-yl]urea]	3	1600
O=C(Nc1ccc(F)c2c1C[C@H](O)C2)N[C@@H]1CC(CF)(CF)Oc2ccccc21 [Example 151, 1-[(4R)-2,2-bis(fluoromethyl)-3,4-dihydro-2H-chromen-4-yl]-3-[(2S)-7-fluoro-2-hydroxy-2,3-dihydro-1H-inden-4-yl]urea]	6	6600
O=C(Nc1ccc(F)c2c1C[C@H](O)C2)N[C@@H]1CC(CF)(CF)Oc2c(F)cccc21 [Example 152, 1-[(4R)-8-fluoro-2,2-bis(fluoromethyl)-3,4-dihydro-2H-chromen-4-yl]-3-[(2S)-7-fluoro-2-hydroxy-2,3-dihydro-1H-inden-4-yl]urea]	3	5500
CC1(C)C[C@@H](NC(=O)Nc2ccc(F)c3c2C[C@H](O)C3)c2ccc(F)c(F)c2O1 [Example 153, 1-[(4R)-7,8-difluoro-2,2-dimethyl-3,4-dihydro-2H-chromen-4-yl]-3-[(2S)-7-fluoro-2-hydroxy-2,3-dihydro-1H-inden-4-yl]urea]	2	760
CC1(C)C[C@@H](NC(=O)Nc2ccc(F)c3c2C[C@H](O)C3)c2cccc(OC(F)(F)F)c2O1 [Example 154, 1-[(4R)-2,2-dimethyl-8-(trifluoromethoxy)-3,4-dihydro-2H-chromen-4-yl]-3-[(2S)-7-fluoro-2-hydroxy-2,3-dihydro-1H-inden-4-yl]urea]	3	82
O=C(Nc1ccc(F)c2c1CC(O)C2)NC1CCc2cc(C(F)(F)F)ccc21 (stereo not shown) [Example 155, 1-(7-fluoro-2-hydroxy-2,3-dihydro-1H-inden-4-yl)-3-[5-(trifluoromethyl)-2,3-dihydro-1H-inden-1-yl]urea]	19	42
CC1(C)C[C@@H](NC(=O)Nc2ccc(F)c3c2C[C@@H](O)C3)c2cccc(C(F)(F)F)c2O1 [Example 156, 1-[(4R)-2,2-dimethyl-8-(trifluoromethyl)-3,4-dihydro-2H-chromen-4-yl]-3-[(2R)-7-fluoro-2-hydroxy-2,3-dihydro-1H-inden-4-yl]urea]	40	61
CC1(C)C[C@@H](NC(=O)Nc2ccc(F)c3c2C[C@@H](O)C3)c2cccc(F)c2O1 [Example 157, 1-[(4R)-8-fluoro-2,2-dimethyl-3,4-dihydro-2H-chromen-4-yl]-3-[(2R)-7-fluoro-2-hydroxy-2,3-dihydro-1H-inden-4-yl]urea]	59	1800
O=C(Nc1ccc(F)c2c1C[C@@H](O)C2)N[C@@H]1CC(CF)(CF)Oc2cc(OC(F)(F)F)ccc21 [Example 159, 1-[(4R)-2,2-bis(fluoromethyl)-7-(trifluoromethoxy)-3,4-dihydro-2H-chromen-4-yl]-3-[(2R)-7-fluoro-2-hydroxy-2,3-dihydro-1H-inden-4-yl]urea]	36	420
CC1(C)C[C@@H](NC(=O)Nc2ccc(F)c3c2C[C@@H](O)C3)c2ccc(C(F)(F)F)cc2O1 [Example 160, 1-[(4R)-2,2-dimethyl-7-(trifluoromethyl)-3,4-dihydro-2H-chromen-4-yl]-3-[(2R)-7-fluoro-2-hydroxy-2,3-dihydro-1H-inden-4-yl]urea]	61	130
O=C(Nc1ccc(F)c2c1C[C@@H](O)C2)N[C@@H]1CC(CF)(CF)Oc2ccc(F)cc21 [Example 161, 1-[(4R)-6-fluoro-2,2-bis(fluoromethyl)-3,4-dihydro-2H-chromen-4-yl]-3-[(2R)-7-fluoro-2-hydroxy-2,3-dihydro-1H-inden-4-yl]urea]	47	3900

From US8859584B2, “TRPV1 antagonists” (AbbVie Inc., priority 2011, dated 2014)
